Measurements taken from PubChem BioAssay AID276 (DTP/NCI, 2004).
“And” between values parts separate entries of the source, which are not always exact repeats. Equal values may be shown once. Inconclusive results and toxic doses are left out. The calls were made as follows: active = survival T/C of 150% or more; inactive = T/C below 125% in these data.

System: B6C3F1 mice, Lewis lung carcinoma iv, survival T/C
Assay: NCI In Vivo Anticancer Drug Screen. Data for tumor model Lewis Lung Carcinoma (intravenous) in B6C3F1 mice
Details: endpoint: median survival time, schedule: Q01DX009 (ip), higher = longer survival
Procedure, shortened: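 Mice carrying transplanted tumors received test compound; survival in the treated group was divided by that of the vehicle-treated control group to give the T/C value.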

[1] = dose: 12.5 mg/kg/injection, vehicle: saline with Tween-80
[2] = dose: 25.0 mg/kg/injection, vehicle: saline with Tween-80
[3] = dose: 50.0 mg/kg/injection, vehicle: saline with Tween-80
[4] = dose: 100.0 mg/kg/injection, vehicle: saline with Tween-80
[5] = dose: 200.0 mg/kg/injection, vehicle: saline with Tween-80

Measured: T/C

O=CCC(O)C(O)C(O)CO (configuration not stated)
inactive: dose: 300.0 mg/kg/injection, vehicle: suspension in saline 102 % of control | dose: 600.0 mg/kg/injection, vehicle: suspension in saline 108 % of control | dose: 1200.0 mg/kg/injection, vehicle: suspension in saline 114 % of control | dose: 1800.0 mg/kg/injection, vehicle: suspension in saline 117 % of control | dose: 2400.0 mg/kg/injection, vehicle: suspension in saline 106 % of control

C=CC(C)(C)n1cc(C2=C(O)C(=O)C(c3cn(C(C)(C)C=C)c4ccccc34)=C(O)C2=O)c2ccccc21
inactive: dose: 1.25 mg/kg/injection, vehicle: Klucel (hydroxypropylcellulose) (HPC) 105 % of control | dose: 2.5 mg/kg/injection, vehicle: Klucel (hydroxypropylcellulose) (HPC) 110 % of control | dose: 5.0 mg/kg/injection, vehicle: Klucel (hydroxypropylcellulose) (HPC) 106 % of control | dose: 10.0 mg/kg/injection, vehicle: Klucel (hydroxypropylcellulose) (HPC) 100 % of control | dose: 20.0 mg/kg/injection, vehicle: Klucel (hydroxypropylcellulose) (HPC) 114 % of control | dose: 40.0 mg/kg/injection, vehicle: Klucel (hydroxypropylcellulose) (HPC) 119 % of control

COc1ccc2nonc2c1
inactive: dose: 6.25 mg/kg/injection, vehicle: saline with Tween-80 107 % of control and 112 % of control | [1] 102 % of control and 118 % of control | [2] 101 % of control and 107 % of control | [3] 106 % of control and 109 % of control

c1ccc2sc(SSN3CC4CCC(CC4)C3)nc2c1
inactive: [1] 100 % of control | [2] 93 % of control | [3] 90 % of control | [4] 91 % of control | [5] 106 % of control

C/C=C(\C)c1cc(=O)c2c(C)cc3c(c2o1)C(=O)c1c(O)c(C2CC(C)(N(C)C)C(OC(C)=O)C(C)O2)cc(C2CC(N(C)C)C(O)C(C)O2)c1C3=O (configuration not stated)
inactive: dose: 0.15 mg/kg/injection, vehicle: suspension in saline 101 % of control | dose: 0.31 mg/kg/injection, vehicle: suspension in saline 103 % of control | dose: 0.62 mg/kg/injection, vehicle: suspension in saline 97 % of control | dose: 1.25 mg/kg/injection, vehicle: suspension in saline 107 % of control | dose: 2.5 mg/kg/injection, vehicle: suspension in saline 111 % of control | dose: 5.0 mg/kg/injection, vehicle: suspension in saline 106 % of control

O=C1NC(=O)NC(C(=O)O)N1
inactive: dose: 50.0 mg/kg/injection, vehicle: DMSO 101 % of control | dose: 100.0 mg/kg/injection, vehicle: DMSO 105 % of control | dose: 200.0 mg/kg/injection, vehicle: DMSO 98 % of control | dose: 400.0 mg/kg/injection, vehicle: DMSO 110 % of control

CCc1ncnc2cc(OCC3CO3)c(OC)cc12 (configuration not stated)
inactive: dose: 3.13 mg/kg/injection, vehicle: saline 98 % of control | dose: 6.25 mg/kg/injection, vehicle: saline 100 % of control and 106 % of control | dose: 12.5 mg/kg/injection, vehicle: saline 102 % of control and 104 % of control | dose: 25.0 mg/kg/injection, vehicle: saline 117 % of control and 118 % of control

C=Cc1cnc([N+](=O)[O-])n1C
inactive: dose: 12.5 mg/kg/injection, vehicle: Klucel (hydroxypropylcellulose) (HPC) 94 % of control | dose: 25.0 mg/kg/injection, vehicle: Klucel (hydroxypropylcellulose) (HPC) 90 % of control | dose: 50.0 mg/kg/injection, vehicle: Klucel (hydroxypropylcellulose) (HPC) 99 % of control | dose: 100.0 mg/kg/injection, vehicle: Klucel (hydroxypropylcellulose) (HPC) 92 % of control | dose: 200.0 mg/kg/injection, vehicle: Klucel (hydroxypropylcellulose) (HPC) 92 % of control

CC(=O)ON(C(C)=O)c1ccc(C(N)=O)cc1
inactive: [2] 102 % of control | [3] 93 % of control | [4] 107 % of control | [5] 99 % of control | dose: 400.0 mg/kg/injection, vehicle: saline with Tween-80 106 % of control

N[C@@H](Cc1ccc(N(CCCl)CCCl)cc1)C(=O)O
inactive: dose: 0.5 mg/kg/injection, vehicle: saline 102 % of control | dose: 1.0 mg/kg/injection, vehicle: saline 95 % of control | dose: 2.0 mg/kg/injection, vehicle: saline 99 % of control
